Assay results published in patent US20250230193A1, “CYCLIC COMPOUND HAVING SELECTIVE KRAS INHIBITORY EFFECT ON HRAS AND NRAS” (CHUGAI SEIYAKU KABUSHIKI KAISHA, priority 2022, published 2025).
*1 amine or outer side, *2 acyl side, *3 side chain or, on linkers, in order; H or OH if unused. Where a SMILES comes first, the peptide text is derived from it. Bridges are numbered along the chain shown (N, C = ends). [ ]: non-standard residue; d: D form. The star is where a group is joined. hPhe(3-Cl-4-CF3) = N[C@@H](CCc1ccc(C(F)(F)F)c(Cl)c1)C(=O)O; NPrPhe(4-CF3) = CCCN[C@@H](Cc1ccc(C(F)(F)F)cc1)C(=O)O; NEtPhe(4-Me) = CCN[C@@H](Cc1ccc(C)cc1)C(=O)O; X4 = CCCN([C@@H](COCCC(C)C)C(=O)[*:2])[*:1]; NMeGly(cPent) = CN[C@H](C(=O)O)C1CCCC1; Pro(4,4-F2) = O=C(O)[C@@H]1CC(F)(F)CN1; NMeI = CC[C@H](C)[C@H](NC)C(=O)O; NMeD = CN[C@@H](CC(=O)O)C(=O)O; NMeL = CN[C@@H](CC(C)C)C(=O)O; Morpholide = C1CN(*)CCO1; NMeA = CN[C@@H](C)C(=O)O; Ac5c = NC1(C(=O)O)CCCC1; Aze = O=C(O)[C@@H]1CCN1; Ac4c = NC1(C(=O)O)CCC1; Sar = CNCC(=O)O

Tests used:
[1] = molecular target: GDP-bound NRAS wild-type protein (Homo sapiens, UniProt P01111); assay: Binding to NRAS by surface plasmon resonance (SPR), Single Cycle Kinetics; settings: SPR; for NRAS/KRAS (ratio of KD value with respect to NRAS to KD value with respect to KRAS) / NRAS/KRAS (ratio of KD value for NRAS to KD value for KRAS): GDP-bound NRAS wild-type vs GDP-bound KRAS wild-type
Sequence of GDP-bound NRAS wild-type protein (P01111 whole entry): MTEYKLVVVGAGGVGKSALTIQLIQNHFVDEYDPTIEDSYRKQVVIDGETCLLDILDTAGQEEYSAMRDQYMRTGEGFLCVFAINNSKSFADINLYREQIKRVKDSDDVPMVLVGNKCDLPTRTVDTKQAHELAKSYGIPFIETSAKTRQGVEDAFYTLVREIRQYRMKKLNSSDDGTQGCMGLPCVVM

[2] = molecular target: GDP-bound HRAS wild-type protein (Homo sapiens, UniProt P01112); assay: Binding to HRAS by surface plasmon resonance (SPR), Single Cycle Kinetics; settings: SPR; for HRAS/KRAS (ratio of KD value with respect to HRAS to KD value with respect to KRAS) / HRAS/KRAS (ratio of KD value for HRAS to KD value for KRAS): GDP-bound HRAS wild-type vs GDP-bound KRAS wild-type
Sequence of GDP-bound HRAS wild-type protein (P01112 whole entry): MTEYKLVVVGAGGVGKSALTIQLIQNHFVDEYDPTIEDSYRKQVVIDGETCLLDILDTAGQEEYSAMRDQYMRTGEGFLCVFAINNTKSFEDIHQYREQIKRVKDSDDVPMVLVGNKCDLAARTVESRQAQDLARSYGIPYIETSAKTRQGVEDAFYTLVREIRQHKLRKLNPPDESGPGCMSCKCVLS

Structure (SMILES) | NRAS/KRAS (ratio of KD value for NRAS to KD value for KRAS) [1] | HRAS/KRAS (ratio of KD value for HRAS to KD value for KRAS) [2] | other results
CCO[C@@H]1C[C@H]2C(=O)NC3(CCC3)C(=O)N(C)[C@@H](C3CCCC3)C(=O)N(C)[C@H](C(=O)N(C)C)CC(=O)N(C)[C@@H](CC)C(=O)N[C@@H]([C@@H](C)CC)C(=O)N3CC[C@H]3C(=O)N(C)[C@H]3C[C@@H](C)CCN(C3=O)[C@@H](Cc3ccc(C(F)(F)F)cc3)C(=O)N(C)CC(=O)N[C@@H](CCc3cc(F)c(C(F)(F)F)c(F)c3)C(=O)N2C1 [PP1021] |  |  | NRAS/KRAS (ratio of KD value with respect to NRAS to KD value with respect to KRAS) [1]: C (A compound having a KD ratio of 0.1 or more and less than 3 is denoted as C); HRAS/KRAS (ratio of KD value with respect to HRAS to KD value with respect to KRAS) [2]: B (a compound having 3 or more and less than 10 is denoted as B)
CCCN1C(=O)[C@@H]2CCN2C(=O)[C@H](C)N(C)C(=O)[C@H]([C@@H](C)CC)NC(=O)[C@H](CC(C)C)N(C)C(=O)C[C@@H](C(=O)N2CCOCC2)N(C)C(=O)[C@H](C2CCCC2)N(C)C(=O)C2(CCC2)NC(=O)[C@@H]2CCCN2C(=O)[C@H](CCc2ccc(C(F)(F)F)c(Cl)c2)NC(=O)CN(C)C(=O)[C@@H]1COCCC(C)C [PP1819] ([NMeL]I[NMeA][Aze][X4][Sar][hPhe(3-Cl-4-CF3)]P[Ac4c][NMeGly(cPent)][NMeD]-Morpholide; lactam N-11) | C (A compound having a KD ratio of 0.1 or more and less than 3 is denoted as C) | C (A compound having a KD ratio of 0.1 or more and less than 3 is denoted as C) | 
CC[C@H](C)[C@@H]1NC(=O)[C@H](CC2CCC2)N(C)C(=O)C[C@@H](C(=O)N(C)C)N(C)C(=O)[C@H](C2CCCC2)N(C)C(=O)C2(CCC2)N(C)C(=O)[C@@H]2C[C@@H](C)CN2C(=O)[C@H](CCc2cc(F)c(C(F)(F)F)c(F)c2)NC(=O)CN(C)C(=O)[C@H](Cc2ccc(C)cc2)N2CC/C=C\C[C@@H](C2=O)N(C)C(=O)CN(C)C1=O [PP1803] | A (a compound having 10 or more and less than 20 is denoted as A) | B (a compound having 3 or more and less than 10 is denoted as B) | 
CC[C@H](C)[C@@H]1NC(=O)[C@H](CC(C)C)N(C)C(=O)C[C@@H](C(=O)N2CCOCC2)N(C)C(=O)[C@H]([C@@H](C)CC)N(C)C(=O)C2(CCCC2)NC(=O)[C@@H]2CCCN2C(=O)[C@H](CCc2ccc(C(F)(F)F)c(Cl)c2)NC(=O)CN(C)C(=O)[C@H](Cc2ccc(C)cc2)N(CC)C(=O)CN(C)C(=O)CN(C)C1=O [PP0043] ([NMeL]I[Sar][Sar][NEtPhe(4-Me)][Sar][hPhe(3-Cl-4-CF3)]P[Ac5c][NMeI][NMeD]-Morpholide; lactam N-11) |  |  | NRAS/KRAS (ratio of KD for GDP-bound NRAS wild-type to KD for KRAS) [1]: C (A compound having a KD ratio of 0.1 or more and less than 3 is denoted as C); HRAS/KRAS (ratio of KD for GDP-bound HRAS wild-type to KD for KRAS) [2]: C (A compound having a KD ratio of 0.1 or more and less than 3 is denoted as C)
CCCOC[C@H]1C(=O)N[C@@H]([C@@H](C)CC)C(=O)N(C)CC(=O)N(C)[C@H]2C/C=C\CCN(C2=O)[C@@H](Cc2ccc(C(F)(F)F)cc2)C(=O)N(C)CC(=O)N[C@@H](CCc2cc(F)c(C(F)(F)F)c(F)c2)C(=O)N2C[C@H](OCC)C[C@H]2C(=O)NC2(CCC2)C(=O)N(C)[C@@H](C2CCCC2)C(=O)N(C)[C@H](C(=O)N(C)CCC)CC(=O)N1C [PP1668] | A (a compound having 10 or more and less than 20 is denoted as A) | A (a compound having 10 or more and less than 20 is denoted as A) | 
CCC[C@H]1C(=O)N[C@@H]([C@@H](C)CC)C(=O)N(C)CC(=O)N(C)[C@H]2C/C=C\CCN(C2=O)[C@@H](Cc2ccc(C(F)(F)F)cc2)C(=O)N(C)CC(=O)N[C@@H](CCc2cc(F)c(C(F)(F)F)c(F)c2)C(=O)N(C)[C@@H](C)C(=O)NC2(CC(C)(C)C2)C(=O)N(C)[C@@H](C2CCCC2)C(=O)N(C)[C@H](C(=O)N(C)C)CC(=O)N1C [PP1934] | A (a compound having 10 or more and less than 20 is denoted as A) | A (a compound having 10 or more and less than 20 is denoted as A) | 
CC[C@H](C)[C@@H]1NC(=O)[C@H](CC(C)C)N(C)C(=O)C[C@@H](C(=O)N2CCOCC2)N(C)C(=O)[C@H](C2CCCC2)N(C)C(=O)C2(CCC2)NC(=O)[C@@H]2[C@@H](OCC3CCCC3)CCN2C(=O)[C@H](CCc2cc(F)c(C(F)(F)F)c(F)c2)NC(=O)CN(C)C(=O)[C@H](Cc2ccc(C(F)(F)F)cc2)N2CCCC[C@@H](C2=O)N(C)C(=O)CN(C)C1=O [PP1073] |  |  | NRAS/KRAS (ratio of KD value with respect to NRAS to KD value with respect to KRAS) [1]: B (a compound having 3 or more and less than 10 is denoted as B); HRAS/KRAS (ratio of KD value with respect to HRAS to KD value with respect to KRAS) [2]: B (a compound having 3 or more and less than 10 is denoted as B)
CCCN1C(=O)CN(C)C(=O)[C@@H]2CCN2C(=O)[C@H]([C@@H](C)CC)NC(=O)[C@H](CC(C)C)N(C)C(=O)C[C@@H](C(=O)N(C)C)NC(=O)[C@H](C2CCCC2)N(C)C(=O)C2(CCCC2)NC(=O)[C@@H]2CC(F)(F)CN2C(=O)[C@H](CCc2ccc(C(F)(F)F)c(Cl)c2)NC(=O)CN(C)C(=O)[C@@H]1Cc1ccc(C(F)(F)F)cc1 [PP0375] ([NMeL]I[Aze][Sar][NPrPhe(4-CF3)][Sar][hPhe(3-Cl-4-CF3)][Pro(4,4-F2)][Ac5c][NMeGly(cPent)]D-NMe2; lactam N-11) |  |  | NRAS/KRAS (ratio of KD for GDP-bound NRAS wild-type to KD for KRAS) [1]: B (a compound having 3 or more and less than 10 is denoted as B); HRAS/KRAS (ratio of KD for GDP-bound HRAS wild-type to KD for KRAS) [2]: B (a compound having 3 or more and less than 10 is denoted as B)
